Experimental data from PMC8881610 (Nature Communications, 2022).
Several values for one entry are separate records, joined by “and”; a condition that tells them apart may be missing. Equal entries are not always repeated. Where two headings read alike, the source gives them in different places.

Columns and labels:
GLP-1R = GLP-1R (Homo sapiens, UniProt P43220); experiment: cAMP accumulation assay, GLP-1R WT, mutant or modified constructs; type: cell-based; design: Flag; expressed in transfected cells; host or cells: HEK293T; conditions: HEK293T; for Emax: HEK-293T
Chain of GLP-1R (P43220 24-463): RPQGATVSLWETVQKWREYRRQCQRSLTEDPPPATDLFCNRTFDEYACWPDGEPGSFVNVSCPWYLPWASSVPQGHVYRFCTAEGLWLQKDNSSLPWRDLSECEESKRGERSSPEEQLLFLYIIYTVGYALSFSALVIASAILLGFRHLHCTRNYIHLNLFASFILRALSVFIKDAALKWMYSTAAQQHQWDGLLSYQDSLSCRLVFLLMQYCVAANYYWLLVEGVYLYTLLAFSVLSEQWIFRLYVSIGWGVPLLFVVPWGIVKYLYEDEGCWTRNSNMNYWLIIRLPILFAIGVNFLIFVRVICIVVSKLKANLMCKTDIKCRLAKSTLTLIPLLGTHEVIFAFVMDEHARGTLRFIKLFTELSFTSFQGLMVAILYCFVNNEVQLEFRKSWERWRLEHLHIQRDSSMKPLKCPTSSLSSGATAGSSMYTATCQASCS
Protocol: (§1) Human embryonic kidney 293 cells containing SV40 large T-antigen (HEK293T) were cultured in DMEM (Gibco) supplemented with 10% (v/v) fetal bovine serum (FBS, Gibco), 1 mM sodium pyruvate (Gibco) and 100 units/mL penicillin and 100 μg/mL streptomycin at 37 °C in 5% CO2. Chinese hamster ovary (CHO-K1) cells were cultured in F-12 (Gibco) containing 10% FBS, 100 units/mL penicillin and 100 μg/mL streptomycin at 37 °C in 5% CO2. For cAMP and receptor expression assays, HEK293T cells were seeded into 6-well cell culture plates at a density of 7 × 10^5 cells per well. After overnight incubation, cells were transfected with GIPR, GLP-1R or GCGR construct using Lipofectamine 2000 or Lipofectamine 3000 transfection reagent (Invitrogen). For whole-cell binding assay, CHO-K1 cells were seeded into 96-well fibronectin-treated cell culture plates at a density of 3 × 10^4 cells per well. After overnight incubation, cells were transfected with GIPR, GLP-1R or GCGR construct using Lipofectamine 2000 transfection reagent (Invitrogen). Following 24 h culturing, the transfected cells were ready for use.
The human GLP-1R was modified with its native signal sequence (M1-P23) replaced by the HA signal peptide to facilitate receptor expression. To obtain a GLP-1R–Gs complex with good homogeneity and stability, we used the NanoBiT tethering strategy, in which the C terminus of GLP-1R was directly attached to LgBiT subunit followed by a TEV protease cleavage site and a double MBP tag. […] The constructs were cloned into both pcDNA3.1 and pFastBac vectors for functional assays in mammalian cells and protein expression in insect cells, respectively. Other constructs including the full-length and various mutants of human GLP-1R were cloned into pcDNA3.1 vector for cAMP accumulation and whole-cell binding assays.
For GIPR, GLP-1R and GCGR, multi-targeting agonist stimulated cAMP accumulation was measured by a LANCE Ultra cAMP kit (PerkinElmer). After 24 h culture, the transfected cells were seeded into 384-well microtiter plates at a density of 3,000 cells per well in HBSS supplemented with 5 mM HEPES, 0.1% (w/v) BSA or 0.1% (w/v) casein and 0.5 mM 3-isobutyl-1-methylxanthine. The cells were stimulated with different concentrations of peptide agonists for 40 min at RT. Eu-cAMP tracer and ULight^TM-anti-cAMP were then diluted by cAMP detection buffer and added to the plates separately to terminate the reaction. Plates were incubated at RT for 1 h and the fluorescence intensity measured at 620 nm and […] by an EnVision multilabel plate reader (PerkinElmer).

GCGR = GCGR (Homo sapiens, UniProt P47871); experiment: Whole-cell binding assay, competition with 125I-GCG; design: V5 (C); 6×His (C); expressed in transfected cells; host or cells: CHO-K1; conditions: Fig. 7c receptor binding profile, n = 3 in duplicate
Chain of GCGR (P47871 26-477): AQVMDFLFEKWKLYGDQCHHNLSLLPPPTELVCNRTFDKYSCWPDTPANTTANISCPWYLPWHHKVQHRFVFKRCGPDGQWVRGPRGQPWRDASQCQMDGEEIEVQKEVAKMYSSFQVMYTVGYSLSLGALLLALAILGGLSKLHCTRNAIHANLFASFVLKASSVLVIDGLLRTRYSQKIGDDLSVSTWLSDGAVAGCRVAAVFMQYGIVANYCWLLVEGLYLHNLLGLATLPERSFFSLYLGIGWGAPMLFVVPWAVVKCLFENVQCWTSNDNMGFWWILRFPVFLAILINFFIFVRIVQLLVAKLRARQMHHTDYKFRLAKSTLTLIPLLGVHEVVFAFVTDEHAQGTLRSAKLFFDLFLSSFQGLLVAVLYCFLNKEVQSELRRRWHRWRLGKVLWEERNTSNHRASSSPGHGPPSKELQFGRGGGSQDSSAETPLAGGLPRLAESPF
Protocol: as §1
For GLP-1R and GCGR, CHO-K1 cells (30,000 cells/well) were seeded into Isoplate-96 plates and incubated for 24 h at 37 °C in 5% CO2. The WT or mutant constructs were transiently transfected using Lipofectamine 2000 transfection reagent as previous described. They were then washed twice using F-12 with 0.1% BSA or 0.1% casein, 33 mM HEPES, and incubated for 2 h at 37 °C. […] Cells were washed three times with ice-cold PBS and lysed in PBS with 1% Triton X-100, 20 mM Tris-HCl. After addition of scintillation cocktail (PerkinElmer), radioactivity (CPM) was counted on a MicroBeta^2 microplate counter (PerkinElmer). Data were normalized to the WT response and analyzed using three-parameter logistic equation.

GIPR = biological target: T1, GIPR (Homo sapiens, UniProt P48546); experiment: Whole-cell binding assay, competition with 125I-GIP1-42; design: acylated tirzepatide to the full-length or modified; Flag; expressed in transfected cells
T1 sequence (P48546 22-466): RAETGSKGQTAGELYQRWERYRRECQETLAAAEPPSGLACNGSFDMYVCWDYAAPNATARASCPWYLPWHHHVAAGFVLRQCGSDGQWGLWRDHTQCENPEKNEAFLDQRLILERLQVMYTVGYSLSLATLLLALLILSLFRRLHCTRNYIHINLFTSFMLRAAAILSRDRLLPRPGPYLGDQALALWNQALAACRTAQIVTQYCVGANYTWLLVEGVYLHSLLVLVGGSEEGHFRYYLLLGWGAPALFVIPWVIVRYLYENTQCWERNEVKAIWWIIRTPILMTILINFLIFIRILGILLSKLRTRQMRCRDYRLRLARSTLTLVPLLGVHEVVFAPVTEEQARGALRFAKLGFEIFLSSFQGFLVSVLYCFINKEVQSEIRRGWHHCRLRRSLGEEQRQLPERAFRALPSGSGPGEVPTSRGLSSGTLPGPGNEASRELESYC
Protocol: as §1
For GIPR, CHO-K1 cells were cultured in F-12 medium with 10% FBS and seeded at a density of 30,000 cells/well in Isoplate-96 plates (PerkinElmer). The WT or mutant GIPR was transiently transfected using Lipofectamine 2000 transfection reagent as previous described. They were then washed twice using F-12 with 0.1% BSA or 0.1% casein, 33 mM HEPES, and incubated for 2 h at 37 °C. […] Following incubation, cells were washed three times with ice-cold PBS and lysed by addition of 50 μL lysis buffer (PBS supplemented with 20 mM Tris-HCl, 1% Triton X-100, pH 7.4). Fifty µL of scintillation cocktail (OptiPhase SuperMix, PerkinElmer) were added and the plates were subsequently counted for radioactivity (counts per minute, CPM) in a MicroBeta^2 microplate counter (PerkinElmer).

[1] = GLP-1R WT, 0.1% BSA, read-out: cAMP accumulation Emax
[2] = GLP-1R WT, 0.1% casein, read-out: cAMP accumulation Emax
[3] = GIPR WT, 0.1% casein, CHO-K1, read-out: Binding pIC50 (converted)
[4] = GIPR, effect of tirzepatide acylation, CHO-K1, read-out: binding pIC50 (converted)

| Compound | Emax (GLP-1R; [1]) [%] | Emax (GLP-1R; [2]) [%] | GCGR (pIC50 ± S.E.M.) (GCGR) | IC50 (GIPR; Fig. 7c receptor binding profile, n = 3 in duplicate, SEM, read-out: GIPR (pIC50 ± S.E.M.) (converted)) [nM] | binding Span (GIPR; GIPR WT, 0.1% casein, CHO-K1) | IC50 (GIPR; [3]) [nM] | binding Span (GIPR; GIPR WT, CHO-K1) [% WT] | IC50 (GIPR; GIPR WT, CHO-K1, read-out: binding pIC50 (converted)) | IC50 (GIPR; [4]) [nM] | EC50 (GLP-1R; GLP-1R WT, 0.1% BSA, read-out: cAMP accumulation pEC50 (converted)) [pM] | EC50 (GLP-1R; GLP-1R, effect of tirzepatide acylation, read-out: cAMP pEC50 (converted)) [pM] | Emax (GLP-1R; GLP-1R, effect of tirzepatide acylation, read-out: cAMP Emax) [%] | binding Span (GIPR; GIPR, effect of tirzepatide acylation, CHO-K1) |
| --- | --- | --- | --- | --- | --- | --- | --- | --- | --- | --- | --- | --- | --- |
| CC[C@H](C)[C@H](NC(=O)[C@H](CC(C)C)NC(=O)[C@H](Cc1c[nH]c2ccccc12)NC(=O)[C@H](CCC(N)=O)NC(=O)[C@@H](NC(=O)[C@H](Cc1ccccc1)NC(=O)[C@H](C)NC(=O)[C@H](CCCCNC(=O)COCCOCCNC(=O)COCCOCCNC(=O)CC[C@H](NC(=O)CCCCCCCCCCCCCCCCCCC(=O)O)C(=O)O)NC(=O)[C@H](CCC(N)=O)NC(=O)[C@H](C)NC(=O)[C@@H](NC(=O)[C@H](CCCCN)NC(=O)[C@H](CC(=O)O)NC(=O)[C@H](CC(C)C)NC(=O)C(C)(C)NC(=O)[C@@H](NC(=O)[C@H](CO)NC(=O)[C@H](Cc1ccc(O)cc1)NC(=O)[C@H](CC(=O)O)NC(=O)[C@H](CO)NC(=O)[C@@H](NC(=O)[C@H](Cc1ccccc1)NC(=O)[C@@H](NC(=O)CNC(=O)[C@H](CCC(=O)O)NC(=O)C(C)(C)NC(=O)[C@@H](N)Cc1ccc(O)cc1)[C@@H](C)O)[C@@H](C)O)[C@@H](C)CC)[C@@H](C)CC)C(C)C)C(=O)N[C@@H](C)C(=O)NCC(=O)NCC(=O)N1CCC[C@H]1C(=O)N[C@@H](CO)C(=O)N[C@@H](CO)C(=O)NCC(=O)N[C@@H](C)C(=O)N1CCC[C@H]1C(=O)N1CCC[C@H]1C(=O)N1CCC[C@H]1C(=O)N[C@@H](CO)C(N)=O [Tirzepatide] | 99.7 ± 1.5 | 99.1 ± 1.73 | N.B. | 31.6 | 92.95 ± 3.97 | 3.16 | 102.92 ± 6.94 | 89.1 nM and 97.7 nM | 105 | – | – | – | – |
| CC[C@H](C)[C@H](NC(=O)[C@H](CC(C)C)NC(=O)[C@H](Cc1c[nH]c2ccccc12)NC(=O)[C@H](CCC(N)=O)NC(=O)[C@@H](NC(=O)[C@H](Cc1ccccc1)NC(=O)[C@H](C)NC(=O)[C@H](CCCCN)NC(=O)[C@H](CCC(N)=O)NC(=O)[C@H](C)NC(=O)[C@@H](NC(=O)[C@H](CCCCN)NC(=O)[C@H](CC(=O)O)NC(=O)[C@H](CC(C)C)NC(=O)C(C)(C)NC(=O)[C@@H](NC(=O)[C@H](CO)NC(=O)[C@H](Cc1ccc(O)cc1)NC(=O)[C@H](CC(=O)O)NC(=O)[C@H](CO)NC(=O)[C@@H](NC(=O)[C@H](Cc1ccccc1)NC(=O)[C@@H](NC(=O)CNC(=O)[C@H](CCC(=O)O)NC(=O)C(C)(C)NC(=O)[C@@H](N)Cc1ccc(O)cc1)[C@@H](C)O)[C@@H](C)O)[C@@H](C)CC)[C@@H](C)CC)C(C)C)C(=O)N[C@@H](C)C(=O)NCC(=O)NCC(=O)N1CCC[C@H]1C(=O)N[C@@H](CO)C(=O)N[C@@H](CO)C(=O)NCC(=O)N[C@@H](C)C(=O)N1CCC[C@H]1C(=O)N1CCC[C@H]1C(=O)N1CCC[C@H]1C(=O)N[C@@H](CO)C(N)=O [Non-acylated tirzepatide] | 99.1 ± 1.65 | 98.76 ± 0.97 | – | – | 88.80 ± 5.25 | 3.39 | – | – | 12.6 | 4.68 | 7.94 | 100 ± 0.88 | 90.71 ± 3.70 % WT or Tirzepatide |
